# Values of other authors as cited in US6653293B1, “Methods, apparatuses and medicaments for treating body fluid related diseases” (priority 1992, dated 2003).
# Test system: infected T-4 lymphocytes
# Settings: in vitro, HIV-infected T-4 lymphocytes
substance,measurement,value
tumor necrosis factor [TNF],death of infected cells,subjects the infected cells to death
same,time to coagulation of DNA of the infected T-4 lymphocytes after administration,about 3 hours
